Data taken from patent publication US6284910A, “Farnesyl pyrophosphate analogs” (University of Kentucky Research Foundation, priority 1999, dated 2001).
Entries after “also recorded” stand apart in the source; their conditions may differ. Blank lines part the entries; values can stand above or below the compound they belong to.

Legend:
[1] = biological target: T1, recombinant rat brain FTase (Rattus norvegicus, UniProt Q02293+Q04631); assay: Inhibition of FTase-catalyzed transfer of [^3 H]farnesyl from [^3 H]FPP to H-Ras; format: biochemical; details: concentrations as high as 250 μM
T1 construct: 6xHis (N); made in house; host or cells: Sf9 insect cells (baculovirus)
Method: FIG. 2. Differential Inhibition of Farnesyltransferase and CAAX Geranylgeranyltransferase by AGPP. The assay mixtures contained (in a final volume of 25 μl) various components as described in "Experimental Procedures". After incubation for 15 min at 37° C., the amount of [^3 H]prenyl group transferred to the appropriate protein substrate [H-Ras (CVLS) for FTase and H-Ras (CVLL) for CAAX GGTase] was measured by precipitation with ethanol-HCl. The assays contained 10 ng recombinant rat FTase, 5 μM H-Ras, and 0.6 μM [^3 H]FPP (33,000 dpm/pmol) or 100 ng recombinant rat CAAX GGTase, 5 μM H-Ras CVLL, and 1 μM [^3 H]GGPP (33,000 dpm/pmol) and the indicated concentration of unlabeled AGPP. The 100% of control values were 1.1 and 5.5 pmol of [^3 H]farnesyl or [^3 H]geranylgeranyl transferred per tube. Each value is the average of duplicate incubations and is representative of two separate experiments.
FIG. 3. Inhibition of Farnesyltransferase by AGPP and I-AGPP. The enzymatic activity was measured in the presence of the various concentrations of either AGPP or I-AGPP as described in […]. The 100% control values were 1.9 and 2 pmol. Each value is the average of duplicate incubations and is representative of three separate experiments.
(§1) Assay for Farnesyltransferase Activity--Farnesyltransferase activity was assayed by measuring the amount of [^3 H]farnesyl or [^3 H]anilinogeranyl transferred from [^3 H]FPP or [^3 H]AGPP to recombinant p21^H-ras, as described previously (31). Unless otherwise stated, each reaction mixture contained the following components in a final volume of 25 μl: 50 mM Tris (pH 7.4), 20 mM KCl, 0.2% octyl β-glucopyranoside, 1 mM dithiothreitol, 10-20 ng recombinant FTase, 5 μM p21^Ha-ras, 3 mM MgCl2, 50 μM ZnCl2, and 0.6 μM [^3 H]FPP (33,000 dpm/pmol; American Radiochemical Co.) or 0.1-5 μM [^3 H]AGPP (37,400 dpm/pmol). Following incubation for the indicated times at 37° C., the amount of [^3 H]prenyl transferred was measured by ethanol-HCl precipitation and filtration on glass fiber filters with modification as previously described (19). A blank value was determined in parallel incubation mixtures containing no enzyme. This blank value was subtracted from each reaction before calculating pmol [^3 H]prenyl transferred.
Inhibition of Farnesyltransferase by AGPP--AGPP was tested for its ability to inhibit recombinant rat brain FTase activity in vitro. AGPP inhibited FTase in a concentration dependent manner with an IC50 value of 0.6 μM (FIG. 2).
Kinetic analyses were carried out to investigate the mechanism of FTase inhibition by AGPP. […] The same Km value was observed when the Lineweaver-Burke plot was analyzed under different Ras and AGPP concentrations in the presence of a constant concentration of FPP. […] AGPP inhibition is reversible, since transfer of [^3 H]-FPP by FTase to Ras was restored by isolating the farnesyltransferase by gel filtration chromatography after preincubation in the presence of 50 μM AGPP (data not shown).
The assays contained 10 ng recombinant rat FTase, 5 μM H-Ras, and 0.6 μM [^3 H]FPP (33,000 dpm/pmol) or 100 ng recombinant rat CAAX GGTase, 5 μM H-Ras CVLL, and 1 μM [^3 H]GGPP (33,000 dpm/pmol) and the indicated concentration of unlabeled AGPP. The 100% of control values were 1.1 and 5.5 pmol of [^3 H]farnesyl or [^3 H]geranylgeranyl transferred per tube.

FTase [2] = biological target: T2, FTase (Rattus norvegicus, UniProt Q02293+Q04631); assay: Inhibition of FTase-catalyzed transfer of [^3 H]AGPP to p21^H-ras; format: biochemical; parameters: H-Ras is only the protein substrate; details: non-radiolabeled compound, time and concentration dependent transfer
Method: as §1
(§2) The observed inhibition kinetics could be a manifestation of the ability of AGPP to act as an alternative substrate for FTase. To evaluate the potential of AGPP to serve as a substrate of FTase, [^3 H]-AGPP was prepared by a similar route as described above, incorporating tritium with a specific activity of 17 Ci/mmol (synthesis to be reported elsewhere). […] The incorporated radioactivity was detected as a band of the expected molecular weight of farnesylated p21^H-ras on SDS-polyacrylamide gels (FIG. 4A, inset). […] The concentration of [^3 H]AGPP that gave half-maximal reaction velocity was approximately 0.5 μM (FIG. 4B).

FTase [3] = biological target: T2, FTase; assay: FTase-catalyzed transfer of labeled FPP analogs to p21^H-ras (substrate assay); format: biochemical; parameters: H-Ras is only the protein substrate; details: in vitro, 37° C.
Method: FIG. 4. Transfer of Anilinogeranyl from [^3 H]AGPP to p21^Ha-ras by Farnesyltransferase. (A) Each reaction contained 1 μM [^3 H]AGPP (37,400 dpm/pmol) and 10 ng of recombinant FTase in the absence (triangles) or presence (circles) of 5 μM p21^Ha-ras Duplicate samples were incubated for the indicated times at 37° C., and ethanol-HCl precipitated radioactivity was measures as described under "Experimental Procedures". […] The gel was treated with Amplify solution (Amersham), dried, and exposed to Kodak X-OMAT AR film for 2 days at -70° C. The migration of molecular weight markers placed in a adjacent lane is shown. (B) The AGPP substrate saturation curve for FTase was determined by varying the amount of [^3 H]AGPP in the standard reaction described above. Assays were carried out in duplicate for 30 min at 37° C., and the ethanol-HCl precipitable radioactivity measured. The data is representative of three independent experiments.
FIG. 5. […] Farnesyltransferase (10 ng) was incubated in a final volume of 25 μl in the presence of 1.0 μM [^3 H]AGPP or [^3 H]FPP and 5 μM wild-type p21^Ha-ras. After incubation for 30 min at 37° C., the amount of [^3 H]prenyl transferred to p21^Ha-ras was determined as described under "Experimental Procedures". Each value is the average of duplicate incubations and is representative of five separate experiments.
as §1, §2
FIG. 5 depicts transfer of unnatural anilinogeranyl lipid from [^3 H]AGPP and transfer of farnesyl lipid from [^3 H]FPP to H-Ras by FTase. Farnesyltransferase (10 ng) was incubated in a final volume of 25 μl in the presence of 1.0 μM [^3 H]AGPP or [^3 H]FPP and 5 μM wild-type H-Ras. After incubation for 30 min. at 37° C., the amount of [^3 H]prenyl transferred to H-Ras was determined by ethanol-HCl precipitation and scintillation counting. Each value is the average of duplicate incubations and is representative of five separate experiments.

FTase [4] = biological target: T2, FTase; assay: Continuous fluorescence assay: transfer of FPP and analogs to N-dansyl-GCVLS by FTase; format: biochemical; details: excitation 340 nm, 505 nm
Source text: FIG. 8. Progress Curves for Transfer of FPP and Analog Pyrophosphates to Dansyl-GCVLS by FTase. The reaction is monitored for fluorescence intensity at 505 nm with excitation at 340 nm. (a) FPP, (b) AGPP, (c) 8-(pentafluoroaniline)geranyl pyrophosphate, (d) blank.
Continuous Fluorescence Assay for Analog Transfer: An important requirement for these studies is the development of a rapid technique for evaluating whether FPP analogs that are efficiently and appropriately transferred to target substrates by FTase. The analogs were evaluated for their ability to be transferred by FTase to the pentapeptide N-dansyl-GCVLS in a continuous fluorescence assay. (See references 78, 79, infra). There is a time dependent increase in the fluorescence of the dansyl group due to the local increase in hydrophobicity as the adjacent cysteine residue is isoprenylated. […] (FIG. 8).

Xenopus laevis oocytes = assay: Xenopus laevis oocyte maturation assay (GVBD) with oncogenic H-Ras in mevinolin-treated oocytes; format: cell-based; details: 50 μM mevinolin, overnight
Source text: Recently, a novel methodology involving the microinjection of known amounts of Ras into Xenopus oocytes has been described (see references 24, 45, infra), thereby permitting a quantitative structure-function analysis of H-Ras farnesyl-group for signal transduction in vivo. The approach makes use of enzymatic methods to attach structurally related farnesyl analogs onto the prenylation site of H-Ras combined with microinjection procedures to study their in vivo function. Oocytes are naturally arrested at the G2-M boundary of the first meiotic cell division. (See reference 80, infra). When microinjected with oncogenic H-Ras, oocytes reenter the cell cycle, which is monitored by germinal vesicle breakdown (GVBD) by the appearance of a white spot in the animal hemisphere. GVBD is accompanied by activation of the mitogen-activated protein kinase (MAPK) cascade. (See 81, 82, infra). […] (See references 24, 45, infra). These biochemical effects are strictly dependent on in vivo farnesylation of the injected H-Ras protein since mutation of the CaaX prenylation motif, blocking isoprenoid biosynthesis, and inhibition of FTase in oocytes all suppress these activities. (See references 83-85, infra). Thus, the system provides a method to study the in vivo role of prenylation by analyzing the ability of FPP analogues to rescue H-Ras biological functions in isoprenoid-depleted oocytes. […] Oocytes were isolated from X. laevis females and allowed to recover overnight. (See 24, 45, infra).

inhibition of FTase by anilinogeranyl alcohol, in words [1]: did not significantly inhibit
SMILES: C/C(=C\CO)CC/C=C(\C)CNc1ccccc1 [AG-OH, (E,E)-8-Aniline-3,7-dimethyl-2,6-octadien-1-ol]
inhibition of transfer of [^3 H]AGPP to p21^H-ras, in words (FTase [2]): not AG-OH or farnesol were found to inhibit

SMILES: C/C(=C\COP(=O)(O)OP(=O)(O)O)CC/C=C(\C)CNc1ccc(I)cc1 [I-AGPP, 8-(4-iodoaniline)-3,7-dimethyl-2,6-octadiene pyrophosphate]
transfer to p21^H-ras by FTase, in words (FTase [3]): efficient transfer of I-AGPP by FTase to H-Ras
transfer to p21^H-ras by FTase, in words (FTase [3]; listed as 125 I-AGPP): time and substrate dependent manner similar to [^3 H]AGPP

SMILES: C/C(=C\COP(=O)(O)OP(=O)(O)O)CC/C=C(\C)CNc1ccc([N+](=O)[O-])cc1 [analog 2, 8-(4-nitroaniline)-3,7-dimethyl-2,6-octadiene pyrophosphate]
time-dependent increase in dansyl fluorescence / transfer to dansyl peptide, in words (FTase [4]): Time-dependent increases in the fluorescence of the dansyl group

SMILES: C/C(=C\COP(=O)(O)OP(=O)(O)O)CC/C=C(\C)CNc1c(F)c(F)c(F)c(F)c1F [analog 4, 8-pentafluoroaniline-3,7-dimethyl-2,6-octadiene pyrophosphate]
time-dependent increase in dansyl fluorescence / transfer to dansyl peptide, in words (FTase [4]): Time-dependent increases in the fluorescence of the dansyl group; also recorded: does not change the apparent kinetics of transfer

SMILES: C/C(=C\COP(=O)(O)OP(=O)(O)O)CC/C=C(\C)CNc1c(F)c(F)c(N=[N+]=[N-])c(F)c1F [analog 5, 8-(4-azido-2,3,5,6-tetrafluoroaniline)-3,7-dimethyl-2,6-octadiene pyrophosphate]
time-dependent increase in dansyl fluorescence / transfer to dansyl peptide, in words (FTase [4]): no increase in fluorescence, and are not transferred

SMILES: CCN(C/C(C)=C/CC/C(C)=C/COP(=O)(O)OP(=O)(O)O)c1c(F)c(F)c(N=[N+]=[N-])c(F)c1F [analog 6, 8-(N-ethyl-4-azido-2,3,5,6-tetrafluoroaniline)-3,7-dimethyl-2,6-octadiene pyrophosphate]
time-dependent increase in dansyl fluorescence / transfer to dansyl peptide, in words (FTase [4]): no increase in fluorescence, and are not transferred

SMILES: C/C(=C\COP(=O)(O)OP(=O)(O)O)CCCOCc1ccccc1 [analog 12, 6-benzyloxy-3-methyl-2-hexene pyrophosphate]
time-dependent increase in dansyl fluorescence / transfer to dansyl peptide, in words (FTase [4]): transferred to dansyl peptide by FTase with slow kinetics; also recorded: Time-dependent increases in the fluorescence of the dansyl group

SMILES: CC(C)=CCCC(C)=CCCC(C)=CCO [farnesol, reference compound]
inhibition of transfer of [^3 H]AGPP to p21^H-ras, in words (FTase [2]): not AG-OH or farnesol were found to inhibit

SMILES: CC[C@H](C)C(=O)O[C@H]1C[C@@H](C)C=C2C=C[C@H](C)[C@H](CC[C@@H]3C[C@@H](O)CC(=O)O3)[C@H]21 [mevinolin, reference compound]
depletion of endogenous FPP pool (Xenopus laevis oocytes): effectively depletes the endogenous pool of FPP
